In patent US20220174947A1, “ANTIMICROBIAL MIXTURE CONTAINING 4-(3-ETHOXY-4-HYDROXYPHENYL)BUTAN-2-ONE AND AN ALCOHOL COMPOUND, AND COSMETIC COMPOSITION CONTAINING SAME” (L'OREAL, priority 2018, published 2022):

How the values were obtained:
Assay in all cases: Synergistic antimicrobial activity as MIC, 96-well microplate, optical density at 620 nm
Assay type in all cases: cell-based
[1] = system: Candida albicans ATCC 10231; conditions: for microbial growth percentage: 0 B5 weight %
Description: with: • MIC of A with B: minimum concentration of product A in the combination A+B which makes it possible to obtain an inhibitory effect; • MIC of B with A: minimum concentration of product B in the combination A+B which makes it possible to obtain an inhibitory effect; • MIC of A: minimum inhibitory concentration of product A alone; • MIC of B: minimum inhibitory concentration of product B alone. This formula was described for the first time in the article by F. C. Kull, […], and R. L. Mayer, Applied Microbiology 9:538-541, 1961. […] When the FIC index value is less than or equal to 1, it is considered that the combination of test compounds has a synergistic effect. […] A 96-well microplate at an incubation temperature of 32.5° C. is used. […] For each compound: […] 50 μl of each of the daughter solutions obtained containing compound A and 50 μl of each of the daughter solutions obtained containing compound B are added to the microplate wells. 100 μl of Sabouraud liquid nutrient broth inoculated at double concentration with the strain Aspergillus niger are also added thereto. A positive microbial growth control was also prepared. […] An absorbance control was performed in parallel on compounds A and B alone. This control corresponds to 100 μl of double concentration sterile Sabouraud liquid nutrient broth+100 μl of double concentration compound A or B. […] The test as described above (tests, absorbance control and growth control) was performed again to test the combination A+B on the following strains Enterococcus faecalis, Staphylococcus aureus, Pseudomonas aeruginosa, Candida albicans, where appropriate.

[2] = system: Aspergillus niger ATCC 6275; conditions: for % MIC of A alone: Aspergillus niger, growth <= 25%
Description: (§1) FIC Index=(MIC of A with B/MIC of A)+(MIC of B with A/MIC of B [Math. 1]
(§2) with: • MIC of A with B: minimum concentration of product A in the combination A+B which makes it possible to obtain an inhibitory effect; • MIC of B with A: minimum concentration of product B in the combination A+B which makes it possible to obtain an inhibitory effect; • MIC of A: minimum inhibitory concentration of product A alone; • MIC of B: minimum inhibitory concentration of product B alone. This formula was described for the first time in the article by F. C. Kull, P. C. Eisman, H. D. Sylwestrowka, and R. L. Mayer, Applied Microbiology 9:538-541, 1961.
The microbial strain Aspergillus niger ATCC 6275, and a double-concentration Sabouraud broth liquid culture medium supplemented with polyoxyethylenated (20 OE) sorbitan monopalmitate (Tween 40 from Croda) and Phytagel© BioReagent were used (i.e. a mixture of 5 g of Phytagel+0.6 g of Tween 40+60 g of Sabouraud broth).
(§3) A 96-well microplate at an incubation temperature of 32.5° C. is used.
(§4) The incubation time of the microplate is: • from 24 to 30 h under aerobic conditions for microbial Aspergillus niger ATCC 6275; • from 18 to 24 h under aerobic conditions for Candida albicans ATCC 10231, Pseudomonas aeruginosa ATCC 9027 and Staphylococcus aureus ATCC 6538; • from 24 to 48 h under aerobic conditions for Enterococcus faecalis ATCC 33186.
(§5) For each compound: A=4-(3-ethoxy-4-hydroxyphenyl) butan-2-one compound B=alcohol compound A 10% (weight/volume) stock solution was prepared by mixing 1 g of compound in 9 ml of aqueous 1% agar solution. Successive dilutions were made with the 1% agar solution.
(§6) 50 μl of each of the daughter solutions obtained containing compound A or B are added to the microplate wells. 100 μl of Sabouraud liquid nutrient broth inoculated at double concentration with the Aspergillus niger strain and 50 μl of aqueous 1% agar solution are also added thereto.
(§7) 50 μl of each of the daughter solutions obtained containing compound A and 50 μl of each of the daughter solutions obtained containing compound B are added to the microplate wells. 100 μl of Sabouraud liquid nutrient broth inoculated at double concentration with the strain Aspergillus niger are also added thereto.
(§8) A positive microbial growth control was also prepared. The positive microbial growth control corresponds to a mixture of 100 μl of aqueous 1% agar solution with 100 μl of Sabouraud liquid nutrient broth inoculated at double concentration with the strain Aspergillus niger in the absence of compounds A and B.
(§9) An absorbance control was performed in parallel on compounds A and B alone. This control corresponds to 100 μl of double concentration sterile Sabouraud liquid nutrient broth+100 μl of double concentration compound A or B.
(§10) In the three cases (absorbance control, growth control and test), the final volume present in each of the microplate wells is 200 μl.
In the two cases (test and control), the inoculum represents the concentration of the Aspergillus niger strain present in the final volume of the wells (200 μl) and is between 2 and 6×10^5 cfu/ml of Aspergillus niger.

[3] = system: Staphylococcus aureus ATCC 6538; conditions: for % MIC of A alone: Staphylococcus aureus, growth <= 25%
Description: as §1, §2
The microbial strain Staphylococcus aureus ATCC 6538 and a double-concentration nutrient broth liquid culture medium were used.
as §3, §4, §5, §6, §7, §8, §9, §10
The test as described above (tests, absorbance control and growth control) was performed again to test the combination A+B on the following strains Enterococcus faecalis, Staphylococcus aureus, Pseudomonas aeruginosa, Candida albicans, where appropriate.

% MIC of A alone ([1]; Candida albicans, Example 5, growth <= 25%): 0.2%
% MIC of A alone ([2]; Example 1): 0.1%
% MIC of A alone ([2]; Example 3): 0.1%
% MIC of A alone ([2]; Example 5): 0.1%
% MIC of A alone ([3]; Example 2): 1%
% MIC of A alone ([3]; Example 6): 1%
Structure (SMILES): CCOc1cc(CCC(C)=O)ccc1O [A, 4-(3-ethoxy-4-hydroxyphenyl)butan-2-one]
microbial growth percentage ([1]; 0.025 A): 69%
microbial growth percentage ([1]; 0.05 A): 54%
microbial growth percentage ([1]; 0.1 A): 27%
microbial growth percentage ([1]; 0.2 A): 4%
microbial growth percentage ([2]; 0.025 A, 0 B1 weight %): 82%
microbial growth percentage ([2]; 0.025 A, 0 B3 weight %): 45%
microbial growth percentage ([2]; 0.025 A, 0 B5 weight %): 55%
microbial growth percentage ([2]; 0.05 A, 0 B1 weight %): 43%
microbial growth percentage ([2]; 0.05 A, 0 B3 weight %): 35%
microbial growth percentage ([2]; 0.05 A, 0 B5 weight %): 32%
microbial growth percentage ([2]; 0.1 A, 0 B1 weight %): 5%
microbial growth percentage ([2]; 0.1 A, 0 B3 weight %): 14%
microbial growth percentage ([2]; 0.1 A, 0 B5 weight %): 16%
microbial growth percentage ([3]; 0.0625 A, 0 B2 weight %): 52%
microbial growth percentage ([3]; 0.0625 A, 0 B6 weight %): 65%
microbial growth percentage ([3]; 0.125 A, 0 B2 weight %): 49%
microbial growth percentage ([3]; 0.125 A, 0 B6 weight %): 75%
microbial growth percentage ([3]; 0.25 A, 0 B2 weight %): 52%
microbial growth percentage ([3]; 0.25 A, 0 B6 weight %): 79%
microbial growth percentage ([3]; 0.5 A, 0 B2 weight %): 75%
microbial growth percentage ([3]; 0.5 A, 0 B6 weight %): 24%
microbial growth percentage ([3]; 1 A, 0 B2 weight %): 2%
microbial growth percentage ([3]; 1 A, 0 B6 weight %): 5%
